Common to all, as to assay type: cell-based
The target of experiment [1] is T1, human muscarinic M3 receptor (Homo sapiens, UniProt P20309).
T1 construct: expressed in transfected cells
In words: Alphascreen Surefire phospho-ERK1/2 functional assay, M3. To be noted: for % Emax cf. ACh, M3 / Emax: Emax relative to ACh; for Emax: CHO, read-out: % Emax cf. ACh, M3, CHO cells stably expressing human M3; for EC50: phospho-ERK1/2. As to the method:
(§1) ERK1/2 phosphorylation is a downstream consequence of both Gq/11 and Gi/o protein coupled receptor activation, making it highly suitable for the assessment of M1, M3 (Gq/11 coupled) and M2, M4 receptors (Gi/o coupled), rather than using different assay formats for different receptor subtypes. CHO cells stably expressing the human muscarinic M1, M2, M3 or M4 receptor were plated (25K/well) onto 96-well tissue culture plates in MEM-alpha+10% dialysed FBS. Once adhered, cells were serum-starved overnight. Agonist stimulation was performed by the addition of 5 μL agonist to the cells for 5 min (37° C.). Media was removed and 50 μL of lysis buffer added. After 15 min, a 4 μL sample was transferred to 384-well plate and 7 μL of detection mixture added.
(§2) Isomer assignment (Isomer 1, Isomer 2, etc.) is based on the retention time of the compound using the separation technique that was performed in the final purification step. By implication, this could be reversed phase HPLC, chiral HPLC or chiral SFC retention time, and this will vary from compound to compound.
In general terms: In Alpha technology, singlet oxygen from a donor bead excites a nearby acceptor bead.

The target in experiment [2] is T2, human muscarinic M4 receptor (Homo sapiens, UniProt P08173).
T2 sequence (P08173 1-479): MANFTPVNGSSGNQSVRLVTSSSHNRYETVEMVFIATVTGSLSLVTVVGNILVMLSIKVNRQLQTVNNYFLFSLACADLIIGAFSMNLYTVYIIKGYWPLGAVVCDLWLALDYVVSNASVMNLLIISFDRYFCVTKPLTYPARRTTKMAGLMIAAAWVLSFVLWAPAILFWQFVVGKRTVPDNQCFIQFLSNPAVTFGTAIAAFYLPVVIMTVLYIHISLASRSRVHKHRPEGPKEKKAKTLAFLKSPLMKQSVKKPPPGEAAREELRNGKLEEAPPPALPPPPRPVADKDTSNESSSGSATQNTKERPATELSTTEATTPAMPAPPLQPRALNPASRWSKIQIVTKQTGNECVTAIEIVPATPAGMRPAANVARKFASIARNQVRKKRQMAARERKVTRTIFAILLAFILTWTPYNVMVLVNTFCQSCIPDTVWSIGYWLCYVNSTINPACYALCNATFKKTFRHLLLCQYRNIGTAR
Nature of the experiment: Alphascreen Surefire phospho-ERK1/2 functional assay, M4. The settings on record: for % Emax cf. ACh, M4: Emax relative to ACh; for EC50: phospho-ERK1/2. As to the method:
as §1, §2

For experiment [3], the target named is T3, human muscarinic M1 receptor (Homo sapiens, UniProt P11229).
T3 sequence (P11229 1-460): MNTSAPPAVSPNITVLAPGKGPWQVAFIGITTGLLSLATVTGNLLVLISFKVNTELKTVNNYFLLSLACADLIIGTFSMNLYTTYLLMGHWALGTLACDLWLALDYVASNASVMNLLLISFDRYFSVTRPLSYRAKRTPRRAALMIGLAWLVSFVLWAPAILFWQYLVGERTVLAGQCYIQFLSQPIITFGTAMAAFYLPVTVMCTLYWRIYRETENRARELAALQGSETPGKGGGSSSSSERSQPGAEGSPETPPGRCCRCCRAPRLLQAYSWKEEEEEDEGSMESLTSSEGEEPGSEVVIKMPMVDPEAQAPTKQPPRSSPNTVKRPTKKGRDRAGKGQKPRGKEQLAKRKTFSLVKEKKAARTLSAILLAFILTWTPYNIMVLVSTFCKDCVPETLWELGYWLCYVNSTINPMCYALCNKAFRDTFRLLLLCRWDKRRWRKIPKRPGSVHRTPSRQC
Nature of the experiment: Alphascreen Surefire phospho-ERK1/2 functional assay, M1. To be noted: for EC50: phospho-ERK1/2. On the procedure: as §1, with “Functional assays were performed using the Alphascreen Surefire phospho-ERK1/2 assay (Crouch & Osmond, Comb. Chem. High Throughput Screen, 2008). ERK1/2” for “ERK1/2”
For the vast majority of examples at least two diastereomers exist and these have been separated, unless otherwise stated, using the techniques of reversed phase HPLC, chiral HPLC or chiral SFC. Isomer assignment (Isomer 1, Isomer 2, etc.) is based on the retention time of the compound using the separation technique that was performed in the final purification step. By implication, this could be reversed phase HPLC, chiral HPLC or chiral SFC retention time, and this will vary from compound to compound.

Experiment [4] has as its target T4, human muscarinic M2 receptor (Homo sapiens, UniProt P08172).
T4 sequence (P08172 1-466): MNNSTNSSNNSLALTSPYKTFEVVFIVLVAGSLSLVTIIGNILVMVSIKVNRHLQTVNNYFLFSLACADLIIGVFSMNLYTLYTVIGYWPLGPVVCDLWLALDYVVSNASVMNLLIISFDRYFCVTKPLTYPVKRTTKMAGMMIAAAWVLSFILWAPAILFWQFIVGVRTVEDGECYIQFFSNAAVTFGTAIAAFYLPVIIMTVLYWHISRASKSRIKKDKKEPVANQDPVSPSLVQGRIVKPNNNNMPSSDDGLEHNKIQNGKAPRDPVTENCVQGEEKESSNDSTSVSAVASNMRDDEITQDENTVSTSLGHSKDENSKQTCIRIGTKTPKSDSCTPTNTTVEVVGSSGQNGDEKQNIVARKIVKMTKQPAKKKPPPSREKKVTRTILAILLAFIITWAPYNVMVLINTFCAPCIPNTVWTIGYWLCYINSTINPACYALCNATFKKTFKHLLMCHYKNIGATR
Nature of the experiment: Alphascreen Surefire phospho-ERK1/2 functional assay, M2. To be noted: for % Emax cf. ACh, M2 / Emax: Emax relative to ACh; for Emax: CHO, read-out: % Emax cf. ACh, M2, CHO cells stably expressing human M2; for EC50: phospho-ERK1/2. On the procedure: as §1, §2

Where [5] appears, read: pEC50 M4, CHO cells stably expressing human M4.
Setting [6] is: pEC50 M1, CHO cells stably expressing human M1.
Setting [7] is: pEC50 M3, CHO cells stably expressing human M3.
Setting [8] is: pEC50 M2, CHO cells stably expressing human M2.
[9] abbreviates: CHO cells stably expressing human M1, Emax relative to ACh.

Molecules are shown by their SMILES. Where two headings read alike, the source gives them in different places.

T1 sequence (P20309 whole entry): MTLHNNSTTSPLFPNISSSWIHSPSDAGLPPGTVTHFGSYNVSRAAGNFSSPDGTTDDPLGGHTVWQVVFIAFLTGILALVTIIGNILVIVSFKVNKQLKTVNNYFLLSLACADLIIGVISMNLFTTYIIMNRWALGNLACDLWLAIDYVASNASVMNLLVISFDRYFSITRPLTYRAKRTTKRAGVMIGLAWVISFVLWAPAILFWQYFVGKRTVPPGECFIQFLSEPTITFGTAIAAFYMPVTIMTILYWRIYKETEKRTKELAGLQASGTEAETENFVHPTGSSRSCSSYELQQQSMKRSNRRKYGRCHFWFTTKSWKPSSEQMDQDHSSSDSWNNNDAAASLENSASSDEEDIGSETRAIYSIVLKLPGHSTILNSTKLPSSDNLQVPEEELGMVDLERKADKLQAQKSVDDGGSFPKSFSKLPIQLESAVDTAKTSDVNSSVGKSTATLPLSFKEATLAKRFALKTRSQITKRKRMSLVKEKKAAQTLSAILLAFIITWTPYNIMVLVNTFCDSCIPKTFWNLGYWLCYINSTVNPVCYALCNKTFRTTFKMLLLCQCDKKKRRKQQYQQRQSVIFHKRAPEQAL

Take `CCOC(=O)N1C2COCC1CC(N1CCC3(CC1)OC(=O)NC3CC)C2` (single isomer, unassigned) [Example 5-4 Isomer 2b, Ethyl 7-(4-ethyl-2-oxo-1-oxa-3,8-diazaspiro[4.5]dec-8-yl)-3-oxa-9-azabicyclo[3.3.1]nonane-9-carboxylate]: the “% Emax cf. ACh, M3” value in experiment [1] (CHO cells stably expressing human M3) is listed as 4%. The “% Emax cf. ACh, M4” value in experiment [2] (CHO cells stably expressing human M4, listed as 5-4 Isomer 2b) stood at 20%. Further, the EC50 was above 20000 nM in experiment [2] (setting [5]) and 74.1 nM in experiment [3] (setting [6]). The “% Emax cf. ACh, M1” value in experiment [3] (CHO cells stably expressing human M1, Emax relative to ACh, listed as 5-4 Isomer 2b) is 25%. Further, the “% Emax cf. ACh, M2” value in experiment [4] (CHO cells stably expressing human M2, listed as 5-4 Isomer 2b) stood at 1%.

One may read the Emax as the greatest response seen or fitted, relative to the assay's reference. With `CCOC(=O)N1C2COCC1CC(N1CCC(c3cccnc3OC)CC1)C2` (single isomer, unassigned) [Example 2-2 Isomer 1, Ethyl 7-[4-(2-methoxypyridin-3-yl)piperidin-1-yl]-3-oxa-9-azabicyclo[3.3.1]nonane-9-carboxylate], the figures for the maximum response (Emax) in experiment [1] and in experiment [4] were 4% and 3%, respectively. The EC50 in experiment [1] (setting [7]) was above 20000 nM; in experiment [2] (setting [5]), 36.3 nM; in experiment [3] (setting [6]), above 20000 nM; in experiment [4] (setting [8]), above 20000 nM. For the same molecule, in experiment [2] (CHO cells stably expressing human M4, listed as 2-2 Isomer 1), the “% Emax cf. ACh, M4” value is reported as 61%. For the same molecule, the “% Emax cf. ACh, M1” value in experiment [3] (CHO cells stably expressing human M1, Emax relative to ACh, listed as 2-2 Isomer 1) is given as 63%.

Regarding `CCOC(=O)N1C2COCC1CC(N1CCC(N(Cc3ccccc3)C(C)=O)CC1)C2` (single isomer, unassigned) [Example 6-5 Isomer 1, Ethyl 7-{4-[acetyl(benzyl)amino]piperidin-1-yl}-3-oxa-9-azabicyclo[3.3.1]nonane-9-carboxylate], the “% Emax cf. ACh, M3” value in experiment [1] (CHO cells stably expressing human M3, listed as 6-5 Isomer 1) worked out at 13%. Also, the EC50 is above 20000 nM in experiment [1] (setting [7]), 302 nM in experiment [2] (setting [5]), 166 nM in experiment [3] (setting [6]) and above 20000 nM in experiment [4] (setting [8]). The “% Emax cf. ACh, M4” value in experiment [2] (CHO cells stably expressing human M4, listed as 6-5 Isomer 1) is 50%. In experiment [3] (CHO, read-out: % Emax cf. ACh, M1, CHO cells stably expressing human M1, Emax relative to ACh), the Emax worked out at 92%. In addition, in experiment [4] (CHO cells stably expressing human M2, listed as 6-5 Isomer 1), the “% Emax cf. ACh, M2” value amounted to 11%.

Consider `CCOC(=O)N1C2COCC1CC(N1CCC(N(CC(C)C)C(C)=O)CC1)C2` (single isomer, unassigned) [Example 6-1 Isomer 2, Ethyl 7-{4-[acetyl(2-methylpropyl)amino]piperidin-1-yl}-3-oxa-9-azabicyclo[3.3.1]nonane-9-carboxylate], for which the “% Emax cf. ACh, M3” value in experiment [1] (CHO cells stably expressing human M3, listed as 6-1 Isomer 2) turned out to be 62%. Moreover, the “% Emax cf. ACh, M4” value in experiment [2] (CHO cells stably expressing human M4, listed as 6-1 Isomer 2) is given as 111%. Besides, the EC50 in experiment [2] (setting [5]) is 17.4 nM; in experiment [3] (setting [6]), 61.7 nM; in experiment [4] (setting [8]), 324 nM. The “% Emax cf. ACh, M1” value in experiment [3] (setting [9]) stood at 102%. Also, the “% Emax cf. ACh, M2” value in experiment [4] (CHO cells stably expressing human M2, listed as 6-1 Isomer 2) came out at 90%.

As for `CCOC(=O)N1C2COCC1CC(N1CCC3(CC1)CNC(=O)O3)C2` (single isomer, unassigned) [Example 5-3 Isomer 2, Ethyl 7-(2-oxo-1-oxa-3,8-diazaspiro[4.5]dec-8-yl)-3-oxa-9-azabicyclo[3.3.1]nonane-9-carboxylate], the EC50 was above 20000 nM in experiment [1] (CHO cells stably expressing human M3, read-out: pEC50 M3 (converted)); above 20000 nM in experiment [2] (CHO cells stably expressing human M4, read-out: pEC50 M4 (converted)); 126 nM in experiment [3] (CHO cells stably expressing human M1, read-out: pEC50 M1 (converted)); above 20000 nM in experiment [4] (CHO cells stably expressing human M2, read-out: pEC50 M2 (converted)). The maximum response (Emax) in experiment [1] is 5%; in experiment [4], 4%. The “% Emax cf. ACh, M4” value in experiment [2] (CHO cells stably expressing human M4) was 17%. For the same molecule, in experiment [3] (setting [9]), the “% Emax cf. ACh, M1” value worked out at 73%.

Take `CCOC(=O)N1C2COCC1CC(N1CCC(N(CC3(C)CC3)C(C)=O)CC1)C2` (single isomer, unassigned) [Example 6-3 Isomer 2]: the “% Emax cf. ACh, M3” value in experiment [1] (CHO cells stably expressing human M3, listed as 6-3 Isomer 2) is given as 9%. Moreover, in experiment [2] (CHO cells stably expressing human M4, listed as 6-3 Isomer 2), the “% Emax cf. ACh, M4” value is given as 44%. The EC50 in experiment [2] (setting [5]) is 389 nM; in experiment [3] (setting [6]), 195 nM; in experiment [4] (setting [8]), above 20000 nM. In addition, in experiment [3] (CHO cells stably expressing human M1, Emax relative to ACh, listed as 6-3 Isomer 2), the “% Emax cf. ACh, M1” value is recorded as 90%. Moreover, the “% Emax cf. ACh, M2” value in experiment [4] (CHO cells stably expressing human M2, listed as 6-3 Isomer 2) was determined as 11%.

With `CCOC(=O)N1C2COCC1CC(N1CCC(N3CCCCCC3=O)CC1)C2` (single isomer, unassigned) [Example 6-7 Isomer 1, Ethyl 7-[4-(2-oxoazepan-1-yl)piperidin-1-yl]-3-oxa-9-azabicyclo[3.3.1]nonane-9-carboxylate], the “% Emax cf. ACh, M3” value in experiment [1] (CHO cells stably expressing human M3, listed as 6-7 Isomer 1) came out at 28%. Further, the EC50 in experiment [1] (setting [7]) was above 20000 nM; in experiment [2] (setting [5]) it was 75.9 nM; in experiment [3] (setting [6]) it was 646 nM; in experiment [4] (setting [8]), 1020 nM. The “% Emax cf. ACh, M4” value in experiment [2] (CHO cells stably expressing human M4, listed as 6-7 Isomer 1) is reported as 105%. Moreover, the “% Emax cf. ACh, M1” value in experiment [3] (CHO cells stably expressing human M1, Emax relative to ACh, listed as 6-7 Isomer 1) is given as 111%. Besides, the “% Emax cf. ACh, M2” value in experiment [4] (CHO cells stably expressing human M2, listed as 6-7 Isomer 1) is 87%.

Values taken from patent publication US10787447B2, “Pharmaceutical compounds” (Heptares Therapeutics Limited, priority 2018, dated 2020).
